Measurements reported in patent US10183011B2, “Anti-depression compounds” (Board of Regents of the University of Texas System, priority 2009, dated 2019).
Entries after “also recorded” stand apart in the source; their conditions may differ.

Columns and labels:
C. elegans = assay: MPP+-induced mobility deficits in C. elegans; assay type: in vivo; conditions: for locomotion (distance traveled by the head in 10 seconds divided by body length): 10 μM with MPP+, VEH 16.2±0.49, MPP+ alone 7.2±0.68; for mobility protected, relative to normal: 10 μM, 5 mM MPP+ for 32 hours
Method: FIG. 32. Protective efficacy of P7C3 and P7C3A20 for MPP^+-induced mobility deficits in C. elegans. The top panels show worms with the head identified by a green dot. […] Tracking is visualized as starting with blue color and progressing to white by the completion of 10 seconds. The green dot was used to determine locomotion, defined as the distance traveled by the head of the worm in 10 seconds divided by body length. Scale bars represent 70 μM. […] When worms were treated with MPP^+, locomotion was reduced more than 50% (7.2±0.68; n=31, p<0.0001). […] P7C3A20 protected mobility to almost 80% of normal (12.8±0.81; n=34, *p<0.01), and 10 μM P7C3 protected almost 60% (m.i. of 9.6±0.72; n=28, *p<0.05). […] (7.7±1.0; n=30). Experiments were performed in triplicate and data are expressed as mean±SEM.
As a behavioral measure of toxicity, worm mobility was assessed 32 hours after MPP^+-exposure. To quantify worm locomotion, video representations were recorded for 10 seconds at 4× magnification using a Nikon Eclipse 80i microscope. Each video segment consisted of 160 frames, and the head of each worm (10-20 worms per group, repeated in triplicate) was manually tracked in each frame using Imera software. The body length of each worm was also measured by Imera software. The ratio of distance traveled to body length was used to determine the movement index, defined as locomotion, as previously established (Wang J., et al. (2009) An ALS-linked mutant SOD1 produces a locomotor defect associated with aggregation and synaptic dysfunction when expressed in neurons of Caenorhabditis elegans. PLoS Genetics e10003350). […] Co-incubation of MPP^+-exposed worms with 10 μM P7C3A20 conferred 80% preservation of locomotion, while 10 μM P7C3 protected to about 60% of normal levels.
A video-based assay was used to assess the swim speed, distance traveled and length of worms. After exposure to MPP^+ for 32 hrs, worms were washed, resuspended in M9 buffer (500 ul) and transferred to microscope slides. A 10 second movie was recorded at 4× magnification using a Nikon Eclipse 80i microscope. Each movie consisted of 160 frames and the distance traveled by the head of each worm was manually tracked in each frame using Imera software. This software was also used to measure the length of the worm body. The ratio of movement distance to body length was used as a movement index, and defined as locomotion per standard protocols.

U2OS cells = assay: Calcium ionophore A23187-induced loss of mitochondrial membrane potential (TMRM dye release); assay type: cell-based
Text: FIG. 22A, FIG. 22B, FIG. 22C, FIG. 22D, FIG. 22E and FIG. 22F: Example 45 Compound Preserves Mitochondrial Membrane Potential in Parallel to Proneurogenic Activity U2OS cells were loaded with tetramethylrhodamine methyl ester (TMRM) dye and then exposed to the calcium ionophore A23187 either in the presence or absence of test compounds. Example 45 Compound (FIG. 22A) preserved mitochondrial membrane potential following exposure to the calcium ionophore A23187 in a dose-dependent manner. The protective effect of P7C3 was enantiomeric specific. […] Each compound was evaluated in triplicate with similar results.
Extensive evidence pioneered by the laboratory of Xiaodong Wang has shown that an intrinsic pathway leading to programmed cell death emanates from mitochondria (Liu et al., Cell 1996, 86, 147-157; Yang et al., Science 1997, 275, 1129-1132). With the help of the Wang lab, assays were established to test whether Example 45 Compound might protect mitochondria from calcium-induced dissolution (Distelmaier et al., Cytometry A 2008, 73, 129-138). Tetramethylrhodamine methyl ester (TMRM) is a cell-permeant, cationic red-orange fluorescent dye that is readily sequestered by active mitochondria. When loaded with TMRM dye, vehicle-only treated cells released the dye within 15 minutes of exposure to the calcium ionophore A23187. By contrast, dye release was prevented in cells exposed to as little as […] of Example 45 Compound (FIG. 18A).
Since P7C3 ameliorates the death of newborn neurons in the dentate gyrus in living mice, it is possible that its function might relate to mitochondrial integrity. Assays were established to test whether P7C3 might protect cultured U2OS cells from calcium-induced mitochondrial dissolution (Distelmaier et al., Cytometry A 2008, 73, 129-138). Tetramethylrhodamine methylester (TMRM) dye is sequestered by active mitochondria, and, when loaded with TMRM, vehicle-treated cells released the dye within 15 rain of exposure to the calcium ionophor A23 187.

SMILES	locomotion (distance traveled by the head in 10 seconds divided by body length) (C. elegans)	mobility protected, relative to normal (C. elegans)	preservation of mitochondrial membrane potential (U2OS cells; TMRM dye)	lowest concentration that blocked TMRM dye release (U2OS cells; U2OS cells) [nM]	lowest amount that prevented TMRM dye release (U2OS cells) [ng]
COc1cccc(NCC(F)Cn2c3ccc(Br)cc3c3cc(Br)ccc32)c1 (centres unmarked) [Example P7C3A20, N-(3-(3,6-dibromo-9H-carbazol-9-yl)-2-fluoropropyl)-3-methoxyaniline]	12.8±0.81	80%	protection of mitochondrial membrane permeability was observed at an enhanced level; also recorded: exhibited dye release protection at all doses tested		
OC(CNc1ccccc1)Cn1c2ccc(Br)cc2c2cc(Br)ccc21 (centres unmarked) [Example P7C3]	9.6±0.72			≤ 10	
Cc1ccc2c(c1)c1c(n2CCc2ccc(C)nc2)CCN(C)C1 [Dimebon, 2,3,4,5-Tetrahydro-2,8-dimethyl-5-(2-(6-methyl-3-pyridyl)ethyl)-1H-pyrido(4,3-b)indole, reference compound]	7.7±1.0	offered no protective efficacy; also recorded: did not offer any protection			
OC(CNc1ccccc1)Cn1c2ccc(Br)cc2c2cc(Br)ccc21 (centres unmarked) [Example 45 Compound]					≤ 10
